Patent US20240382537A1, “Genetically Modified Mycoplasma Bacteria Active Against Heterogenous Bacterial Biofilms” (priority 2021, published 2024)

Experiments:
P. aeruginosa biofilm = experiment: In vitro P. aeruginosa biofilm degradation assay (crystal violet); format: cell-based, Pseudomonas aeruginosa; settings: for effect of the minimal killing concentration when cells are organized in a biofilm: antibiotic alone, P. aeruginosa clinical isolates
Experimental: In Vitro P. aeruginosa Biofilm Degradation Assay
M. pneumoniae spp. was grown in a T25 flask for three days with 5 ml of Hayflick media without antibiotics, and then the conditioned supernatant was filtered with 0.33 μm sterile syringe filters. P. aeruginosa strains were grown overnight in Erlenmeyer flasks (20 μl stock in 20 ml TSB) at 37° C. on shaking 600 rpm, and then diluted to an OD600 of 0.15 in TSB. Diluted Pseudomonas culture (100 μl) was then added in triplicates to sterile 96-well polystyrene microtiter plates. Cells were incubated statically overnight at 25°° C. to allow for biofilm formation. Biofilms were washed with PBS the following day to remove non-adherent cells and TSB media. Treatment of 50-100 µl of M. pneumoniae-conditioned filtered medium were added to the wells (using at least triplicates), and plates were incubated at 37° C. for 4 h. After incubation, wells were washed with PBS, stained with 150 μl of 0.1% (w/v) crystal violet for 10 min and washed three times with PBS. The dye was solubilized by addition of 100 μl of 95% (v/v) ethanol and incubated for 10 min. Absorbance was measured at 595 nm using a TECAN plate reader.

P. aeruginosa cells = experiment: Effect of antibiotic concentrations on growth of P. aeruginosa isolates in suspension; format: cell-based, Pseudomonas aeruginosa; settings: clinical isolates SAT290 and C117, suspension
Source text: (§1) We studied a possible increase of the biofilm dispersal activity of CV8_HA strain, that expresses dispersal agents against P. aeruginosa, when combined with antibiotics. We used two different clinical isolates of P. aeruginosa (SAT290 and C117) and two different standard of care antibiotics (Ceftazidime-Avibactam and Piperacillin-Tazobactam). First, we studied the effect of different concentrations of these antibiotics on the growth of P. aeruginosa isolates and M. pneumoniae. […] Therefore, we studied the degradation of the biofilm of the P. aeruginosa clinical isolates when exposed to the supernatant of CV8_HA strains with or without these antibiotics (FIG. 8).

M. pneumoniae = experiment: Effect of antibiotics on growth of M. pneumoniae; format: cell-based, Mycoplasma pneumoniae
Source text: as §1

What does the source list for Ceftazidime-Avibactam?
effect of the minimal killing concentration when cells are organized in a biofilm (P. aeruginosa biofilm): has no effect; antibiotic activity on biofilm when combined with CV8_HA supernatant (P. aeruginosa biofilm; clinical isolate SAT290 (FIG. 8A)): becomes active on the biofilm; minimal concentration that kills P. aeruginosa cells when grown in suspension (P. aeruginosa cells): > 15 µg/mL; susceptibility of M. pneumoniae to the antibiotic (M. pneumoniae): naturally resistant

Piperacillin-Tazobactam was tested. Which “effect of the minimal killing concentration when cells are organized in a biofilm” value (P. aeruginosa biofilm) did it give?
The value was “has no effect”.

And the “minimal concentration that kills P. aeruginosa cells when grown in suspension” value (P. aeruginosa cells)?
The value was greater than 5 µg/mL.

What about the “susceptibility of M. pneumoniae to the antibiotic” value (M. pneumoniae) of the same substance?
Its value is “naturally resistant”.
